Laboratory results taken from patent US12030864B2, “Small molecule anticancer agents, combinations and uses thereof” (priority 2018, dated 2024).
Where two headings read alike, the source gives them in different places.

Experiments:
MDA-MB-468 cells [1] = test: Protein synthesis assay; format: cell-based
Description: FIG. 11. depicts the inhibition of global protein synthesis upon treatment of MDA-MB-468 cells with tcyDTDO.
(§1) Cell viability (FIG. 12), proliferation (FIG. 13), and protein synthesis (FIG. 14) assays were performed in MDA-MB-468 cell line in the presence of increasing concentrations of tcyDTDO or DMtcyDTDO.
(§2) Thus, without being bound by any particular theory, it is speculated that compounds of Formula (I)-(VI) regulate DR5 steady-state protein levels in addition to the observed transcriptional induction.

[2] = test system: EGFR, DR4, and DR5 in MDA-MB-468 breast cancer cells; test: Immunoblot of cell extracts prepared under non-reducing conditions; format: cell-based; conditions: 24 h, FIG. 16
Description: MDA-MB-468 breast cancer cells were treated for 24 h with the indicated concentrations of DMtcyDTDO and cells were analyzed by immunoblot. Cell extracts were prepared under non-reducing conditions in the presence of 100 mM N-ethylmaleimide to preserve disulfide bonding patterns (FIG. 16). […] The oligomerized forms of DR4 and DR5 represent the activated form of these receptors.

MDA-MB-468 cell line = test: Cell proliferation assay; format: cell-based; conditions: 24 treatment, FIG. 13
Description: as §1

MDA-MB-468 cells [3] = test: MTT cell viability assay; format: cell-based
Description: MTT cell viability was evaluated using MTT (3-(4,5-dimethylthiazol-2-yl)-2,5-diphenyltetrazolium bromide) assays carried out based on the manufacturer's instructions (kit CGD1, Sigma-Aldrich, St. Louis, MO).
Cell viability assays were performed in MDA-MB-468 (FIG. 8) and BT474 (FIG. 9) cell lines in the presence of increasing concentrations of tcyDTDO and/or TRAIL using the MTT method. The results were analyzed using the Chou-Talalay method [T. C. Chou, P. Talalay, Generalized equations for the analysis of inhibitions of Michaelis-Menten and higher-order kinetic systems with two or more mutually exclusive and nonexclusive inhibitors, Eur J Biochem, 115 (1981) 207-216; T. C. Chou, P. Talalay, Quantitative analysis of dose-effect relationships: the combined effects of multiple drugs or enzyme inhibitors, Adv Enzyme Regul, 22 (1984) 27-55.] to calculate combination indices (Cis) where CI<1 denotes synergy, CI=1 denotes additivity, and C I>1 denotes antagonism.
as §1

MDA-MB-468 cells [4] = test: Immunoblot assays; format: cell-based; conditions: for PARP cleavage: MDA-MB-468, single agent, FIG. 15; for responsiveness of the cell line to treatment: MDA-MB-468 TNBC line
DR5 in MDA-MB-468 cells = test: DR5 oligomerization immunoblot; format: cell-based; conditions: FIGS. 6 and 7
Description: Oligomerization of DR5 was also investigated in MDA-MB-468 cells as shown in FIG. 6 and FIG. 7, which is a magnification of the DR5Long/DR5Short portion of the immunoblot in FIG. 6.

[5] = test system: DR5Long in MDA-MB-468 cell line; format: cell-based
Description: A MDA-MB-468 cell line was engineered to stably express the long form of DR5 (DR5Long) in a tetracycline-inducible manner in order to separate DR5A effects on DR5 protein stability from transcriptional activation.

BT474 cells = test: Immunoblot assays; format: cell-based; conditions: BT474 cancer line
[6] = test system: protein thiolates of MDA-MB-468 cell lysates; test: Protein thiolate reactivity assay (BGPD labeling of cell lysates); format: biochemical; conditions: MDA-MB-468 cell lysates treated with compound in molar excess, then BGPD; FIG. 2
Description: To assess tcyDTDO reactivity with protein thiolates, MDA-MB-468 cell lysates were treated with various compounds in sufficient molar excess to block all protein thiolates. A non-selective thiol-reactive biotinylated analog (BGPD, FIG. 2) was then added to quantify free thiolates remaining after the pre-labeling.

[7] = test system: DR5 transcription in HEK293 cells; test: DR5 transcriptional reporter construct; format: cell-based; conditions: 5 μM; FIG. 10
Description: FIG. 10. depicts increases in DR5 transcription by tcyDTDO in HEK293 cells as measured using a transcriptional reporter construct.
as §2

## CO[C@H]1C[C@@H]2CS(=O)(=O)SC[C@H]2C[C@@H]1OC (racemic) [DMtcyDTDO, (4aS,6S,7S,8aS)- and (4aR,6R,7R,8aR)-6,7-Dimethoxyoctahydrobenzo[d][1,2]dithiine 2,2-dioxide]
MDA-MB-468 cells [1]; 24 treatment, FIG. 14
  effect on protein synthesis compared to equal doses of tcyDTDO: significantly greater effect
[2]; 100 mM N-ethylmaleimide
  oligomerization of EGFR, DR4, and DR5: induces oligomerization of EGFR, DR4, and DR5
[2]
  DR5 level: upregulates DR5
MDA-MB-468 cell line
  effect on proliferation compared to equal doses of tcyDTDO: significantly greater effect
MDA-MB-468 cells [3]; MDA-MB-468, 24 treatment, FIG. 12
  effect on cell viability compared to equal doses of tcyDTDO: significantly greater effect
MDA-MB-468 cells [4]
  PARP cleavage: induce PARP cleavage
  responsiveness of the cell line to treatment: highly responsive

## O=S1(=O)CC2CCCCC2CS1 (stereo not shown) [tcyDTDO]
MDA-MB-468 cells [1]; Homo sapiens, 5 μM, FIG. 11, read-out: inhibition of global protein synthesis
  inhibition at 5 µM: > 95%
DR5 in MDA-MB-468 cells
  DR5 dimerization and oligomerization: increase in DR5 dimerization and oligomerization
[5]; reducing conditions, FIG. 5
  doxycycline-mediated increase in DR5Long: enhanced
BT474 cells
  responsiveness of the cell line to treatment: highly responsive
[6]
  BGPD labeling of free thiolates remaining after pre-labeling: did not reduce BGPD labeling
MDA-MB-468 cells [3]; MTT, FIG. 1, compared with the other compounds profiled
  potency in reducing cancer cell viability: most potent compound identified so far
MDA-MB-468 cells [4]
  PARP cleavage: induce PARP cleavage
  responsiveness of the cell line to treatment: highly responsive
MDA-MB-468 cells [4]; immunoblot
  DR5 expression: increased DR5 expression
[7]
  DR5 transcription: increased DR5 transcription

## Tunicamycin
[5]; reducing conditions, FIG. 5
  doxycycline-mediated increase in DR5Long: did not mimic the effects of tcyDTDO

## CCN1C(=O)C=CC1=O [N-ethylmaleimide (NEM), N-ethylmaleimide, reference compound]
[6]
  BGPD labeling of free thiolates remaining after pre-labeling: prevented BGPD labeling

## Cyclosporine A [Cyclosporine A (CsA)]
[5]
  doxycycline-mediated increase in DR5Long: did not mimic the effects of tcyDTDO

## CC(C)[C@H](NC(=O)c1ccc2ccccc2n1)C(=O)N[C@@H](CC(=O)O)C(=O)COc1c(F)cccc1F [Q-VD-OPH, reference compound]
MDA-MB-468 cells [4]; MDA-MB-468 cells
  effect on tcyDTDO/TRAIL downregulation of EGFR, Akt, phospho-Akt, PDK1: partially reverses
MDA-MB-468 cells [4]; caspase inhibitor added
  effect on tcyDTDO-mediated upregulation of DR5 or the ER stress response: does not alter
MDA-MB-468 cells [4]; caspase inhibitor added, FIGS. 3, 4
  effect on PARP cleavage induced by tcyDTDO/TRAIL: blocked

## C/C=C(/C)C(=O)O[C@H]1C(C)=C2[C@H]([C@@H]1OC(=O)CCCCCCC)[C@@](C)(OC(C)=O)C[C@H](OC(=O)CCC)[C@@]1(O)[C@H]2OC(=O)[C@@]1(C)O [Thapsigargin]
[5]; reducing conditions, FIG. 5
  doxycycline-mediated increase in DR5Long: did not mimic the effects of tcyDTDO

## O[C@H](CS)[C@H](O)CS (racemic) [Dithiothreitol (DTT), Dithiothreitol]
[5]; reducing conditions, FIG. 5
  doxycycline-mediated increase in DR5Long: did not mimic the effects of tcyDTDO
